These results are taken from patent US20020137736A1, “Novel compounds” (priority 1999, published 2002).

The structures appear in SMILES notation.

Usually melting point stands for the temperature, or range, at which the solid turns liquid. In the case of `CC(C)Oc1ccc(NC(=N)c2cccs2)cc1CN1CCCC1` [Example 21, N-[4-Isopropoxy-3-(1-pyrrolidinylmethyl)phenyl]-2-thiophenecarboximidamide], the melting point lay within 138 to 140 °C.
